From patent US8063062B2, “Compounds with a combination of cannabinoid-CB1 antagonism and acetylcholinesterase inhibition” (Solvay Pharmaceuticals B.V., priority 2006, dated 2011)
Read-outs that look alike come from different tables or passages of the source.

Columns and labels:
acetylcholinesterase [1] = target: T1, acetylcholinesterase (Homo sapiens, UniProt P22303); experiment: biochemical
acetylcholinesterase [2] = target: T1, acetylcholinesterase
[3] = target: human cannabinoid CB1 receptor (Homo sapiens, UniProt P21554); experiment: biochemical
Chain of human cannabinoid CB1 receptor (P21554 whole entry): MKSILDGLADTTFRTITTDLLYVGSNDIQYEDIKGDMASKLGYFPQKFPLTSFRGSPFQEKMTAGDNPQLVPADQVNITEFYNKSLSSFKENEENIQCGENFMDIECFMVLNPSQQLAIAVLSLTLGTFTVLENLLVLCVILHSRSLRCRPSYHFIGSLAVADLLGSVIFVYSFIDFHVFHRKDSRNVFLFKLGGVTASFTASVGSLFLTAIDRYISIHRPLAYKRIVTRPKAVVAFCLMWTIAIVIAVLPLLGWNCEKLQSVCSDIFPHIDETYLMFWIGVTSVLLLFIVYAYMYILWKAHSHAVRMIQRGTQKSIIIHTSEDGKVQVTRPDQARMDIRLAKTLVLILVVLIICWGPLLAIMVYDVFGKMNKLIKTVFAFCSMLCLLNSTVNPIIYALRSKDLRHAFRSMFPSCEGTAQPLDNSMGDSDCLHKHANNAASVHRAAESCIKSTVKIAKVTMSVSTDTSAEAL
Experimental: After incubation of a freshly prepared cell membrane preparation with the [^3H]-ligand, with or without addition of compounds of the invention, separation of bound and free ligand was performed by filtration over glass fiber filters. Radioactivity on the filter was measured by liquid scintillation counting.

T1 sequence (P22303 32-614): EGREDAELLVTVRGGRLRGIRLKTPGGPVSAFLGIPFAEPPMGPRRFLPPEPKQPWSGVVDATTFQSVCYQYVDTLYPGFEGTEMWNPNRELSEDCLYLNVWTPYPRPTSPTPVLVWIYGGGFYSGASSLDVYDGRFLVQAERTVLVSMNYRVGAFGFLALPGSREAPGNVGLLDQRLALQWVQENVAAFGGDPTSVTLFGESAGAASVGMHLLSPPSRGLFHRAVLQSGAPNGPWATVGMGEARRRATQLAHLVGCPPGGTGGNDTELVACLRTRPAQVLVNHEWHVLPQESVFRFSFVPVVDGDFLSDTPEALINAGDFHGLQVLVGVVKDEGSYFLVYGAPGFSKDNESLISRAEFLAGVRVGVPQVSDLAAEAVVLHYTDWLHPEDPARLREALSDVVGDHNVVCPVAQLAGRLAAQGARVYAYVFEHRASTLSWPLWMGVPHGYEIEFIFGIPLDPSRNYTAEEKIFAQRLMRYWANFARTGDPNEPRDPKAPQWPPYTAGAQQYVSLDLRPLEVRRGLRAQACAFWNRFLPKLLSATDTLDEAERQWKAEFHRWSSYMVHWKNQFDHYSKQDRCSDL

Structure (SMILES) | IC50 (acetylcholinesterase [1]) [µM] | IC50 (acetylcholinesterase [2]) [µM] | Ki [3] [µM]
CN=C(NS(=O)(=O)c1ccc(Cl)cc1)N1C[C@H](c2ccccc2)C(c2ccc(Cl)cc2)=N1 [SLV319] | 6.31 |  | 
Cc1c(C(=O)NN2CCCCC2)nn(-c2ccc(Cl)cc2Cl)c1-c1ccc(Cl)cc1 [rimonabant] |  | 25.1 | 
O=S(=O)(/N=C(/NCCCCNc1c2c(nc3ccccc13)CCCC2)N1CC(c2ccccc2)C(c2ccc(Cl)cc2)=N1)c1ccc(Cl)cc1 (stereo not shown) [compound 2, 4-chloro-N-{[3-(4-chlorophenyl)-4-phenyl-4,5-dihydro-1H-pyrazolyl]-[7-(1,2,3,4-tetrahydroacridin-9-yl-amino)butylamino]methylene}benzene sulfonamide] |  | 2.51 | 0.0398
